In US10259792B2, “Crystal of uracil compound” (priority 2015, dated 2019):

How the values were obtained:
[1] = Blood concentration measurement test (oral administration to mice); format: in vivo; details: 0.5% HPMC suspension, 50 mg/10 mL/kg, fed Balb/cA mice, compound (1) in plasma by LC-MS/MS
Experimental: A 0.5% HPMC dosing suspension (50 mg/10 mL/kg) of each of crystal I and crystal II was prepared. These suspensions were orally administered to mice (Balb/cA), which had been reared under feeding conditions, in a volume of 10 mL per kg body weight using an oral gavage tube. After administration, mice were returned to the mouse cage, and their conditions were checked. In the cage, water and feed were available ad libitum. At 0.5, 1, 2, 4, 6, and 8 hours after administration, mice were anesthetized with isoflurane, and 60 μL of blood was collected from the orbital venous plexus using a capillary blood collecting tube. The collected blood was ice-cooled, and centrifuged to separate plasma. The mice after blood collection were returned to the animal rearing cage, and their conditions after recovering from anesthesia were checked. After the final blood collection, the depth of isoflurane anesthesia was checked, and then the mice were euthanized by cervical dislocation.
From the concentrations of compound (1) in plasma measured by MRM method using LC-MS/MS, AUC0-24 hr was calculated by log-linear trapezoidal method using Phoenix WinNonlin (v6.3.0), software manufactured by Pharsight.

[2] = Solid stability test (under light exposure); format: physicochemical; details: for Change of chemical purity / Change of crystal form by powder X-ray crystallography: 1 month under light exposure; for Chemical purity, Initial value / Chemical purity, One month later: HPLC; for Chemical purity, Initial value: before storage; for Chemical purity, One month later: stored 1 month under light exposure in clear glass bottle
Experimental: The solid stabilities of crystal I and crystal II obtained in the Examples, when stored for 1 month under light exposure, were measured under the following conditions.
Storage condition: Sample was placed in a transparent glass bottle, then the lid was placed, and the grove between the lid and the bottle was sealed by the grafting tape.
Measurement point: 1 Month
Stored amount: About 30 mg
Storage container: Clear glass bottle
Chemical purity of compound (1) in the sample solution was measured by HPLC analysis. The apparatuses, including the apparatus for data processing, were handled according to the processes and procedures instructed for the apparatuses. (Apparatus: Shimadzu Corporation LC-20AB)
Column: L-column 2 ODS manufactured by Chemicals Evaluation and Research Institute, 4.6×150 mm, 5 μm
Column temperature: 50° C.
Column flow rate: 1.0 mL/min
Mobile phase: A; Water, B; Acetonitrile
Sample concentration: 1.0 mg/mL

AUC(0-t) ([1]; Balb/cA, mouse, plasma, po, 50 mg/kg, read-out: AUC0-24 hr) [µM·h] | Change of chemical purity [2] | Change of crystal form by powder X-ray crystallography [2] | Chemical purity, Initial value [2] [%] | Chemical purity, One month later [2] [%] | AUC0-24 hr [1] [µM·h] | SMILES
122 | did not change | no change of crystal form | 97.8 | 97.4 |  | C[C@@H](NS(=O)(=O)CCCOCn1ccc(=O)[nH]c1=O)c1cccc(OC2CCCC2)c1 [Crystal I, (R)—N-(1-(3-(cyclopentyloxy)phenyl)ethyl)-3-((2,4-dioxo-3,4-dihydropyrimidin-1(2H)-yl)methoxy)propane-1-sulfonamide]
 | did not change | no change of crystal form | 99.0 | 99.1 | 144.51 | C[C@@H](NS(=O)(=O)CCCOCn1ccc(=O)[nH]c1=O)c1cccc(OC2CCCC2)c1 [Crystal II, (R)—N-(1-(3-(cyclopentyloxy)phenyl)ethyl)-3-((2,4-dioxo-3,4-dihydropyrimidin-1(2H)-yl)methoxy)propane-1-sulfonamide]
